Laboratory results as given in patent US6627664B2, “Perylenequinones for use as sonosensitizers” (Altachem Pharma Ltd., priority 2001, dated 2003).
Where two headings read alike, the source gives them in different places. Marks after values point to notes of the source that are not given here.

Assays:
[1] = Singlet oxygen (1O2) yield; type: physicochemical
cells = settings: for Photopotentiation Factor: LD50 dark divided by LD50 light; for LD50 Light: light dose not fixed, 0.75-1.0 J/cm2 of 630 nm light
Description: As used herein, “photopotentiation factor” refers to the property of the compound(s) to exert light- or sound-mediated toxicity in excess of its (their) inherent unactivated toxicity. […] Where the term “LD50” has been used above, the term “IC50” may be substituted, to address the bioassays that concern metabolic activity rather than the endpoint of lethality, loss of reproductive capability, or clonogenic death. The relative photoactivation efficiency of a compound may also be determined using a clonogenic assay, an assay that is well known to those skilled in the art.
In accordance with the present invention, a desirable PQP derivative is one that is non-toxic (or of low toxicity) at high drug concentrations without activation, i.e., without light (also referred to as “dark”), and/or without sound, and is toxic at low concentrations when light of the appropriate wavelength, or sound of the appropriate frequency, is applied. As is recognized by those skilled in the art, the most desirable compounds are those that provide a wide range of non-toxic doses in an unactivated state, as this characteristic provides an increased safety factor for the patient.

[2] = Light absorption properties (red spectral region, 630 nm); type: physicochemical; settings: for A630: absorbance at 630 nm
HL-60 cells = assay: Sonodynamic toxicity (insonation, surviving fraction); type: cell-based, human
Procedure: Sonodynamic toxicity of two perylenequinone derivatives in human promyelocytic leukemia cells in vitro, with respect to a positive control, hematoporphyrin at 1 mM.
HL-60 cells were treated with perylenequinone sensitizers and insonated as described above. The surviving fractions were plotted against sensitizer concentration. […] Cell survival decreased steeply over the next two decades of sensitizer concentration.

[3] = Pharmacokinetics / tissue uptake of 14C-HB in tumor-bearing mice; type: in vivo, Balb/c mice
Description: The excellent fluorescence properties of the hypocrellins and derivatives provide a valuable tool to monitor intracellular uptake and distribution kinetics by confocal laser scanning microscopy (CLSM). Each drug has unique properties of uptake and distribution (Miller et al 1995 a, b). The rate cells take up drug in humans […] can be determined using similar protocols as Liu et al 1995 and Miller et al., 1995 a or b). In vivo, the ideal time between i.v. injection or administration of the drug and light administration is preferably when tumor concentration of the photodynamic agent is optimal with respect to normal tissues, typically up to about 24 hours, but as long as 48 hours or more (Table 2).
Pharmacokinetics of ^14C-HB in Balb/c mice bearing the EMT6/Ed tumor in one flank. […] With respect to skin, the optimal therapeutic ratio for tumor occurs 2 hours following drug administration.

sarcoma 180 cells = settings: cited from earlier work

Hypocrellin A [HA, reference compound]
^1O2 Yield [1]: 0.84 | Photopotentiation Factor (cells): 3-5 | LD50 Light (cells): 3 to 5 µM | LD50 Dark (cells; without light): 15 µM | Abs. Peak in red Spectral region [2]: 658* nm | Extinction Coefficient (× 10^−3) (630 nm) [2]: 0.86 × 10^−3 | A630 [2]: 0.086 | Amax/solvent ([2]; solvent DMF): 0.093/DMF

Cystamine-HB [HBAC-R2]
^1O2 Yield [1]: 0.31 | Photopotentiation Factor (cells): 2.5 | LD50 Light (cells): 5 µM | LD50 Dark (cells; without light): 12.5 µM | Abs. Peak in red Spectral region [2]: 600 nm | Extinction Coefficient (× 10^−3) (630 nm) [2]: 2.44 × 10^−3 | A630 [2]: 0.244 | Amax/solvent ([2]; solvent DMSO): 0.337/DMSO

Cystamine-HB [HBAC-R1]
^1O2 Yield [1]: 0.40 | Photopotentiation Factor (cells): 12.5 | LD50 Light (cells): 1 µM | LD50 Dark (cells; without light): 12.5 µM | Abs. Peak in red Spectral region [2]: 646 nm | Extinction Coefficient (× 10^−3) (630 nm) [2]: 3.88 × 10^−3 | A630 [2]: 0.388 | Amax/solvent ([2]; solvent CHCl3): 0.417/CHCl3

5,8-dibromo-HB [DBHB]
^1O2 Yield [1]: 0.62 | LD50 Dark (cells): 10 µM | Photopotentiation Factor (cells): 3.3 | LD50 Light (cells): 3 µM | maximum sonotoxic effect (HL-60 cells; 100 μM to 1000 μM, versus 1000 μM Hp control): comparable to that of the Hp control | sonotoxicity (HL-60 cells; up to 100 μM): negligible sonotoxicity

Deacetylated-HA [DAHA]
^1O2 Yield [1]: 0.51 | LD50 Dark (cells): >25 µM | LD50 Light (cells): >5 µM | Abs. Peak in red Spectral region [2]: 622 nm | Extinction Coefficient (× 10^−3) (630 nm) [2]: 5.70 × 10^−3 | A630 [2]: 0.570

2-(N,N-diethyl-amino) ethylamine-HB [HBDD-R2]
^1O2 Yield [1]: 0.36 | Photopotentiation Factor (cells): >3.3 | LD50 Light (cells): 7.5 µM

Ethylenediamine-HB [HBED-R2]
Photopotentiation Factor (cells): 5-8.3 | LD50 Light (cells): 3 to 5 µM

2-morpholino-ethyl-aminated-HB [HBAM-R1]
^1O2 Yield [1]: 0.70 | LD50 Dark (cells): >25 µM | Photopotentiation Factor (cells): >6.25 | LD50 Light (cells): 4 µM | Abs. Peak in red Spectral region [2]: 658 nm

HA-Mg^++(Ac2)
^1O2 Yield [1]: 0.71 | LD50 Dark (cells): >25 µM | LD50 Light (cells): >5 µM | Abs. Peak in red Spectral region [2]: 616 nm | Extinction Coefficient (× 10^−3) (630 nm) [2]: 4.47 × 10^−3 | A630 [2]: 0.447 | Amax/solvent ([2]; solvent EtOH): 0.958/EtOH

2-(N,N-dimethyl-amino) propylamine-HB [HBDP-R1]
^1O2 Yield [1]: 0.42 | toxicity (in words) (cells): average or lower than average toxicity | Photopotentiation Factor (cells): >16.6-50 | LD50 Light (cells): 0.5 to 1.5 µM | LD50 Dark (cells; without light): >25 µM

Ethanolamine-HB [HBEA-R2]
^1O2 Yield [1]: 0.70 | Photopotentiation Factor (cells): 3.3 | LD50 Light (cells): 7.5 µM | LD50 Dark (cells; without light): 25 µM

Methylamine-HB [HBMA-IV]
Photopotentiation Factor (cells): 8.5 | LD50 Light (cells): 1 µM

^14C-Hypocrellin B
clearance from blood ([3]; Balb/c mice bearing EMT6/Ed tumor): rapid clearance | Tissue Uptake of ^14C-Hypocrellin B ([3]; Bone, 0 Hours): 19,825 ± 2,300 dpm/g | Tissue Uptake of ^14C-Hypocrellin B ([3]; Bone, 2 Hours): 3,955 ± 2,070 dpm/g | Tissue Uptake of ^14C-Hypocrellin B ([3]; Bone, 24 Hours): 660 ± 215 dpm/g | Tissue Uptake of ^14C-Hypocrellin B ([3]; Bone, 48 Hours): 1,125 ± 310 dpm/g | Tissue Uptake of ^14C-Hypocrellin B ([3]; Brain, 0 Hours): 17,560 ± 560 dpm/g | Tissue Uptake of ^14C-Hypocrellin B ([3]; Brain, 2 Hours): 3,855 ± 170 dpm/g | Tissue Uptake of ^14C-Hypocrellin B ([3]; Brain, 24 Hours): 2,840 ± 275 dpm/g | Tissue Uptake of ^14C-Hypocrellin B ([3]; Brain, 48 Hours): 845 ± 90 dpm/g | Tissue Uptake of ^14C-Hypocrellin B ([3]; Fat, 0 Hours): 20,550 ± 715 dpm/g | Tissue Uptake of ^14C-Hypocrellin B ([3]; Fat, 2 Hours): 38,570 ± 5,610 dpm/g | Tissue Uptake of ^14C-Hypocrellin B ([3]; Fat, 24 Hours): 19,550 ± 2,210 dpm/g | Tissue Uptake of ^14C-Hypocrellin B ([3]; Fat, 48 Hours): 19,335 ± 2,335 dpm/g | Tissue Uptake of ^14C-Hypocrellin B ([3]; Heart, 0 Hours): 113,920 ± 3,365 dpm/g | Tissue Uptake of ^14C-Hypocrellin B ([3]; Heart, 2 Hours): 5,135 ± 910 dpm/g | Tissue Uptake of ^14C-Hypocrellin B ([3]; Heart, 24 Hours): 7,835 ± 1,810 dpm/g | Tissue Uptake of ^14C-Hypocrellin B ([3]; Heart, 48 Hours): 2,325 ± 245 dpm/g | Tissue Uptake of ^14C-Hypocrellin B ([3]; Ileum, 0 Hours): 45,400 ± 3,600 dpm/g | Tissue Uptake of ^14C-Hypocrellin B ([3]; Ileum, 2 Hours): 20,280 ± 2,850 dpm/g | Tissue Uptake of ^14C-Hypocrellin B ([3]; Ileum, 24 Hours): 5,800 ± 645 dpm/g | Tissue Uptake of ^14C-Hypocrellin B ([3]; Ileum, 48 Hours): 2,840 ± 595 dpm/g | Tissue Uptake of ^14C-Hypocrellin B ([3]; Kidney, 0 Hours): 67,344 ± 950 dpm/g | Tissue Uptake of ^14C-Hypocrellin B ([3]; Kidney, 2 Hours): 20,855 ± 3,955 dpm/g | Tissue Uptake of ^14C-Hypocrellin B ([3]; Kidney, 24 Hours): 12,050 ± 1,845 dpm/g | Tissue Uptake of ^14C-Hypocrellin B ([3]; Kidney, 48 Hours): 4,535 ± 765 dpm/g | Tissue Uptake of ^14C-Hypocrellin B ([3]; Liver, 0 Hours): 394,190 ± 7,540 dpm/g | Tissue Uptake of ^14C-Hypocrellin B ([3]; Liver, 2 Hours): 24,620 ± 4,885 dpm/g | Tissue Uptake of ^14C-Hypocrellin B ([3]; Liver, 24 Hours): 22,495 ± 4,440 dpm/g | Tissue Uptake of ^14C-Hypocrellin B ([3]; Liver, 48 Hours): 9,215 ± 720 dpm/g | Tissue Uptake of ^14C-Hypocrellin B ([3]; Lung, 0 Hours): 651,100 ± 42,668 dpm/g | Tissue Uptake of ^14C-Hypocrellin B ([3]; Lung, 2 Hours): 8,580 ± 655 dpm/g | Tissue Uptake of ^14C-Hypocrellin B ([3]; Lung, 24 Hours): 3870 ± 525 dpm/g | Tissue Uptake of ^14C-Hypocrellin B ([3]; Lung, 48 Hours): 2,975 ± 360 dpm/g | Tissue Uptake of ^14C-Hypocrellin B ([3]; Muscle, 0 Hours): 13,665 ± 600 dpm/g | Tissue Uptake of ^14C-Hypocrellin B ([3]; Muscle, 2 Hours): 4,050 ± 940 dpm/g | Tissue Uptake of ^14C-Hypocrellin B ([3]; Muscle, 24 Hours): 2,875 ± 560 dpm/g | Tissue Uptake of ^14C-Hypocrellin B ([3]; Muscle, 48 Hours): 1,015 ± 205 dpm/g | Tissue Uptake of ^14C-Hypocrellin B ([3]; Pancreas, 0 Hours): 32,010 ± 2,165 dpm/g | Tissue Uptake of ^14C-Hypocrellin B ([3]; Pancreas, 2 Hours): 13,185 ± 12,055 dpm/g | Tissue Uptake of ^14C-Hypocrellin B ([3]; Pancreas, 24 Hours): 32,390 ± 11,840 dpm/g | Tissue Uptake of ^14C-Hypocrellin B ([3]; Pancreas, 48 Hours): 16,915 ± 3,845 dpm/g | Tissue Uptake of ^14C-Hypocrellin B ([3]; Serum, 0 Hours): 69,975 ± 1,925 dpm/g | Tissue Uptake of ^14C-Hypocrellin B ([3]; Serum, 2 Hours): 1,655 ± 170 dpm/g | Tissue Uptake of ^14C-Hypocrellin B ([3]; Serum, 24 Hours): 1,020 ± 160 dpm/g | Tissue Uptake of ^14C-Hypocrellin B ([3]; Serum, 48 Hours): 700 ± 240 dpm/g | Tissue Uptake of ^14C-Hypocrellin B ([3]; Skin, 0 Hours): 14,970 ± 74 dpm/g | Tissue Uptake of ^14C-Hypocrellin B ([3]; Skin, 2 Hours): 3,130 ± 221 dpm/g | Tissue Uptake of ^14C-Hypocrellin B ([3]; Skin, 24 Hours): 2,700 ± 170 dpm/g | Tissue Uptake of ^14C-Hypocrellin B ([3]; Skin, 48 Hours): 1,590 ± 250 dpm/g | Tissue Uptake of ^14C-Hypocrellin B ([3]; Spleen, 0 Hours): 151,870 ± 9,395 dpm/g | Tissue Uptake of ^14C-Hypocrellin B ([3]; Spleen, 2 Hours): 58,900 ± 4,205 dpm/g | Tissue Uptake of ^14C-Hypocrellin B ([3]; Spleen, 24 Hours): 14,970 ± 3,215 dpm/g | Tissue Uptake of ^14C-Hypocrellin B ([3]; Spleen, 48 Hours): 26,700 ± 11,105 dpm/g | Tissue Uptake of ^14C-Hypocrellin B ([3]; Stomach, 0 Hours): 28,280 ± 145 dpm/g | Tissue Uptake of ^14C-Hypocrellin B ([3]; Stomach, 2 Hours): 21,630 ± 3,345 dpm/g | Tissue Uptake of ^14C-Hypocrellin B ([3]; Stomach, 24 Hours): 34,385 ± 8,795 dpm/g | Tissue Uptake of ^14C-Hypocrellin B ([3]; Stomach, 48 Hours): 12,460 ± 975 dpm/g | Tissue Uptake of ^14C-Hypocrellin B ([3]; Tumor, 0 Hours): 7,885 ± 270 dpm/g | Tissue Uptake of ^14C-Hypocrellin B ([3]; Tumor, 2 Hours): 3,775 ± 400 dpm/g | Tissue Uptake of ^14C-Hypocrellin B ([3]; Tumor, 24 Hours): 2,950 ± 80 dpm/g | Tissue Uptake of ^14C-Hypocrellin B ([3]; Tumor, 48 Hours): 2,165 ± 470 dpm/g | time of optimal therapeutic ratio for tumor with respect to skin ([3]; following drug administration): 2 h

HB-Mg^++
^1O2 Yield [1]: 0.53 | LD50 Dark (cells): 10 µM | Photopotentiation Factor (cells): 10 | LD50 Light (cells): 1 µM | Abs. Peak in red Spectral region [2]: 622 nm | Extinction Coefficient (× 10^−3) (630 nm) [2]: 5.27 × 10^−3 | A630 [2]: 0.527 | Amax/solvent ([2]; solvent EtOH): 0.604/EtOH

n-butylaminated HB [HBBA-R2]
^1O2 Yield [1]: 0.32 | LD50 Dark (cells): >100 µM | Photopotentiation Factor (cells): 167-500 | LD50 Light (cells): 0.2 to 0.6 µM | cell killing with light (cells; wavelengths between at least 630 and 688 nm): capable of killing cells | Abs. Peak in red Spectral region [2]: 616* nm | Extinction Coefficient (× 10^−3) (630 nm) [2]: 6.19 × 10^−3 | A630 [2]: 0.619 | Amax/solvent ([2]; solvent CHCl3): 0.628/CHCl3

COc1cccc2c1C(=O)c1c(O)c3c(c(O)c1C2=O)CC(O)(C(=O)COC(=O)CCCCCC(=O)O)CC3OC1OC(C)C(O)C(O)C1F (stereo not shown) [FAD 104, 3′-deamino-2′-fluoro-3′-hydroxydoxorubicin-14-pimelate]
rate of ultrasound-induced cell damage (sarcoma 180 cells; 80 μM, insonated, versus ultrasound alone): doubled | cell damage with compound alone (sarcoma 180 cells; no ultrasound): no cell damage
